Reference: publication PMC2063203, “The renal effects of the water-soluble, non-folylpolyglutamate synthetase-dependent thymidylate synthase inhibitor ZD9331 in mice” (British Journal of Cancer, 1998)
“And” between values parts separate entries of the source, which are not always exact repeats. Identical values can stand only once.

Test system: DBA-2 mice
Experiment: Glomerular filtration rate (GFR) by [14C]inulin clearance after bolus drug
Type: in vivo
Protocol: British Journal of Cancer (1998) 78(11), 1457-1463 ? […] In contrast to Tomudex (ZD1694), ZD9331 may therefore be active against tumours with low FPGS activity. […] In view of the history of renal toxicity with some earlier TS inhibitors and the possible therapeutic use of bolus ZD9331, we have examined the effects of bolus ZD9331 dose and route of administration on plasma and kidney pharmacokinetics and renal function in mice. Renal function was assessed by measuring [14C]inulin clearance, and drug concentrations were assayed by reverse-phase high-performance liquid chromatography (HPLC). […] Kidney drug concentrations were slightly elevated in iv.- versus i.p.-treated animals at the low dose (50 mg kg-'), with a correspondingly larger area under the curve. However, at the highest dose (200 mg kg-'), peak kidney drug concentrations were 20-fold higher following i.v. administration than after i.p., with marked kidney retention, resulting in a 50-fold greater kidney drug exposure for the i.v. versus the i.p. route. […] These adverse effects can be readily overcome by i.p. administration, indicating the likely need for short infusions in clinical settings. […] Early studies established that nephrotoxicity may be a result of poor aqueous solubility of 2-amino compounds such as CB3717, and it was shown that 2-desamino CB3717 was more water soluble and less nephrotoxic (Jones et al, 1989; 1996). […] These polyglutamate forms also exibit intra- cellular retention, which may contribute to toxicity as well as anti- tumour activity. […] Such compounds might be expected to show activity in a different spectrum of tumours from ZD1694 and to have a more manageable toxicity profile because of the lack of retained cyto- toxic metabolites. […] MATERIALS AND METHODS Drug administration and animals The compound ZD933 1 (Figure 1) was provided as a white crystalline salt. ['4C]inulin was provided as a carboxylic acid (Amersham, UK, 250 µCi in 5 ml, specific activity 6.6 mCi mmol-') and diluted to an activity of 5 µCi ml-' in phosphate-buffered saline (PBS). ZD9331 was dissolved in 0.05 M sodium bicarbonate, 1457 1458 Ml Walton et al ~~ N Ny~~~14COOHH 0 H IN H N CH ~~~~H , 4 H3C N3 H Figure 1 The chemical structure of ZD9331 adjusted to pH 9.0 and administered either i.v. via the tail vein or i.p. at 0.01 ml g-' mouse body weight. [14C]inulin was administered at 0.05 gCi g-' (i.e. 0.01 ml g-') i.v. via the tail vein. Adult female DBA-2 mice were obtained from OLAC (Bicester, UK) and used at 8-12 weeks of age at a body weight of 15-25 g. Mice were housed in cages containing untreated sawdust and allowed access to food and water ad libitum. Sample preparation Plasma and tissue samples were prepared using standard tech- niques (Walton et al, 1996). Briefly, whole blood was obtained by cardiac puncture into heparinized syringes from halothane- anaesthetized mice. Plasma was prepared by centrifugation at 12 000 r.p.m. x 2 min in a bench-top microcentrifuge. Kidney and liver tissues were rapidly removed, washed and snap frozen on dry ice. Frozen plasma and tissues were stored at -20?C for up to 4 weeks prior to analysis. Individual samples were thawed on ice and handled rapidly. ZD9331 was extracted from whole plasma or tissue homogenates (33% w/v in 0.1 M Tris, pH 10.0) by the addition of an equal volume of acetonitrile, mixing and centrifugation and the super- natant removed for injection into the HPLC system. Samples were diluted with Tris buffer (0.1 M, pH 10.0) on to the linear part of the calibration curve prior to HPLC analysis. Extraction efficiencies were >95%. HPLC analysis Concentrations of ZD9331 were measured in biological samples using reversed phase HPLC on equipment supplied by Kontron (Watford, UK). Separations were carried out using stainless-steel columns heated at 45?C and packed with C18 Supelcosil ODS (10 cm x 4.6 mm, 5 µm bead size, Sigma, Dorset) and protected with NewGuard C18 columns (Anachem, Luton, UK). […]

Molecule: C#CCN(Cc1ccc2nc(N)[nH]c(=O)c2c1)c1ccc(C(=O)N[C@@H](CCC(=O)O)C(=O)O)cc1 [CB3717, N10-propargyl-5,8-dideazafolic acid, reference compound]
- effect on GFR (150 mg kg-1 i.p., 24 h after administration): significant renal toxicity
- effect on GFR (150 mg kg-1 i.v., 4 h after administration): significant renal toxicity
- effect on GFR (150 mg kg-1 i.v., 24 h after administration): significant renal toxicity

Molecule: [14C]inulin [reference compound]
- plasma clearance of [14C]inulin (normal DBA-2 mice, i.v., two independent experiments): 19.5 mL/min/kg and 21.3 mL/min/kg
